Several values for one entry are separate records, joined by “and”; a condition that tells them apart may be missing. Equal entries are not always repeated. Records with an inconclusive call do not appear.
System: BDF1 mice, M5076 sarcoma s.c., survival/tumor T/C
Assay: NCI In Vivo Anticancer Drug Screen. Data for tumor model Sarcoma M5076 (subcutaneous) in B6D2F1 (BDF1) mice
Protocol: The antitumor activity of compounds was measured in mice bearing transplantable tumors. Survival or tumor size were measured and the results are expressed as the measurement made in the treated group (T) divided by the measurement made in the vehicle treated control group (C). The tumor model used in this assay is Sarcoma M5076 (subcutaneous) in B6D2F1 (BDF1) mice

Structure (SMILES): CC1(CO)C(O)CCC2(C)C1CCC1CC3CC12CCC3(O)CO (configuration not stated)
- T/C (endpoint: median survival time, dose: 23.3 mg/kg/injection, schedule: Q01DX017 (sc), vehicle: Klucel (hydroxypropylcellulose) (HPC), higher = longer survival): 93 % of control
- T/C (endpoint: median survival time, dose: 38.9 mg/kg/injection, schedule: Q01DX017 (oral), vehicle: Klucel (hydroxypropylcellulose) (HPC), higher = longer survival): 93 % of control
- T/C (endpoint: median survival time, dose: 64.8 mg/kg/injection, schedule: Q01DX017 (ip), vehicle: Klucel (hydroxypropylcellulose) (HPC), higher = longer survival): 124 % of control
- T/C (endpoint: median survival time, dose: 64.8 mg/kg/injection, schedule: Q01DX017 (oral), vehicle: Klucel (hydroxypropylcellulose) (HPC), higher = longer survival): 102 % of control and 109 % of control
- T/C (endpoint: median survival time, dose: 64.8 mg/kg/injection, schedule: Q01DX017 (sc), vehicle: Klucel (hydroxypropylcellulose) (HPC), higher = longer survival): 163 % of control
- T/C (endpoint: median survival time, dose: 77.8 mg/kg/injection, schedule: Q04DX005 (ip), vehicle: Klucel (hydroxypropylcellulose) (HPC), higher = longer survival): 103 % of control
- T/C (endpoint: median survival time, dose: 83.7 mg/kg/injection, schedule: Q01DX017 (oral), vehicle: Klucel (hydroxypropylcellulose) (HPC), higher = longer survival): 116 % of control
- T/C (endpoint: median survival time, dose: 100.0 mg/kg/injection, schedule: Q03HX003 (sc), vehicle: Klucel (hydroxypropylcellulose) (HPC), higher = longer survival): 106 % of control
- T/C (endpoint: median survival time, dose: 100.0 mg/kg/injection, schedule: Q03HX003 (sc), vehicle: saline, higher = longer survival): 102 % of control
- T/C (endpoint: median survival time, dose: 108.0 mg/kg/injection, schedule: Q01DX017 (ip), vehicle: Klucel (hydroxypropylcellulose) (HPC), higher = longer survival): 116 % of control
- T/C (endpoint: median survival time, dose: 108.0 mg/kg/injection, schedule: Q01DX017 (oral), vehicle: Klucel (hydroxypropylcellulose) (HPC), higher = longer survival): 100 % of control and 118 % of control
- T/C (endpoint: median survival time, dose: 108.0 mg/kg/injection, schedule: Q01DX017 (sc), vehicle: Klucel (hydroxypropylcellulose) (HPC), higher = longer survival): 113 % of control and 121 % of control
- T/C (endpoint: median survival time, dose: 130.0 mg/kg/injection, schedule: Q04DX005 (ip), vehicle: Klucel (hydroxypropylcellulose) (HPC), higher = longer survival): 103 % of control
- T/C (endpoint: median survival time, dose: 139.0 mg/kg/injection, schedule: Q01DX017 (oral), vehicle: Klucel (hydroxypropylcellulose) (HPC), higher = longer survival): 118 % of control
- T/C (endpoint: median survival time, dose: 180.0 mg/kg/injection, schedule: Q01DX017 (oral), vehicle: Klucel (hydroxypropylcellulose) (HPC), higher = longer survival): 116 % of control
- T/C (endpoint: median survival time, dose: 200.0 mg/kg/injection, schedule: Q03HX003 (sc), vehicle: Klucel (hydroxypropylcellulose) (HPC), higher = longer survival): 98 % of control
- T/C (endpoint: median survival time, dose: 200.0 mg/kg/injection, schedule: Q03HX003 (sc), vehicle: saline, higher = longer survival): 100 % of control
- T/C (endpoint: median survival time, dose: 216.0 mg/kg/injection, schedule: Q04DX005 (ip), vehicle: Klucel (hydroxypropylcellulose) (HPC), higher = longer survival): 104 % of control
- T/C (endpoint: median survival time, dose: 300.0 mg/kg/injection, schedule: Q01DX017 (oral), vehicle: Klucel (hydroxypropylcellulose) (HPC), higher = longer survival): 159 % of control
- T/C (endpoint: median survival time, dose: 360.0 mg/kg/injection, schedule: Q04DX005 (ip), vehicle: Klucel (hydroxypropylcellulose) (HPC), higher = longer survival): 106 % of control
- T/C (endpoint: median survival time, dose: 600.0 mg/kg/injection, schedule: Q04DX005 (ip), vehicle: Klucel (hydroxypropylcellulose) (HPC), higher = longer survival): 109 % of control

Structure (SMILES): Cc1ccc(S(=O)(=O)O)cc1.Cc1ccc(S(=O)(=O)O)cc1.[NH-]C1CCCCC1[NH-].[Pt+2]
- T/C (endpoint: median survival time, dose: 4.0 mg/kg/injection, schedule: Q02DX032 (ip), vehicle: dextrose, higher = longer survival): 94 % of control

Structure (SMILES): NCCc1ccc(O)c(O)c1
- T/C (endpoint: mean tumor weight, dose: 25.0 mg/kg/injection, schedule: Q02DX011 (ip), vehicle: saline, higher = larger tumour): 53 % of control
- T/C (endpoint: mean tumor weight, dose: 50.0 mg/kg/injection, schedule: Q02DX011 (ip), vehicle: saline, higher = larger tumour): 57 % of control
- T/C (endpoint: mean tumor weight, dose: 100.0 mg/kg/injection, schedule: Q02DX011 (ip), vehicle: saline, higher = larger tumour): 62 % of control
- T/C (endpoint: mean tumor weight, dose: 200.0 mg/kg/injection, schedule: Q02DX011 (ip), vehicle: saline, higher = larger tumour): 45 % of control
- T/C (endpoint: mean tumor weight, dose: 400.0 mg/kg/injection, schedule: Q02DX011 (ip), vehicle: saline, higher = larger tumour): 76 % of control
- T/C (endpoint: mean tumor weight, dose: 800.0 mg/kg/injection, schedule: Q02DX011 (ip), vehicle: saline, higher = larger tumour): 95 % of control
- T/C (endpoint: median survival time, dose: 12.5 mg/kg/injection, schedule: Q02DX030 (ip), vehicle: saline, higher = longer survival): 114 % of control
- T/C (endpoint: median survival time, dose: 25.0 mg/kg/injection, schedule: Q02DX030 (ip), vehicle: saline, higher = longer survival): 99 % of control
- T/C (endpoint: median survival time, dose: 50.0 mg/kg/injection, schedule: Q02DX030 (ip), vehicle: saline, higher = longer survival): 91 % of control
- T/C (endpoint: median survival time, dose: 100.0 mg/kg/injection, schedule: Q02DX030 (ip), vehicle: saline, higher = longer survival): 100 % of control
- T/C (endpoint: median survival time, dose: 200.0 mg/kg/injection, schedule: Q02DX030 (ip), vehicle: saline, higher = longer survival): 93 % of control
- T/C (endpoint: median survival time, dose: 800.0 mg/kg/injection, schedule: Q02DX030 (ip), vehicle: saline, higher = longer survival): 91 % of control
- T/C (endpoint: median tumor weight (est.), dose: 25.0 mg/kg/injection, schedule: Q02DX011 (ip), vehicle: saline, higher = larger tumour): 58 % of control
- T/C (endpoint: median tumor weight (est.), dose: 50.0 mg/kg/injection, schedule: Q02DX011 (ip), vehicle: saline, higher = larger tumour): 59 % of control
- T/C (endpoint: median tumor weight (est.), dose: 100.0 mg/kg/injection, schedule: Q02DX011 (ip), vehicle: saline, higher = larger tumour): 80 % of control
- T/C (endpoint: median tumor weight (est.), dose: 200.0 mg/kg/injection, schedule: Q02DX011 (ip), vehicle: saline, higher = larger tumour): 62 % of control
- T/C (endpoint: median tumor weight (est.), dose: 400.0 mg/kg/injection, schedule: Q02DX011 (ip), vehicle: saline, higher = larger tumour): 66 % of control
- T/C (endpoint: median tumor weight (est.), dose: 800.0 mg/kg/injection, schedule: Q02DX011 (ip), vehicle: saline, higher = larger tumour): 77 % of control
- T/C (endpoint: median tumor weight change, dose: 12.5 mg/kg/injection, schedule: Q02DX006 (ip), vehicle: saline, higher = larger tumour): 86 % of control
- T/C (endpoint: median tumor weight change, dose: 25.0 mg/kg/injection, schedule: Q02DX006 (ip), vehicle: saline, higher = larger tumour): 93 % of control
- T/C (endpoint: median tumor weight change, dose: 50.0 mg/kg/injection, schedule: Q02DX006 (ip), vehicle: saline, higher = larger tumour): 112 % of control
- T/C (endpoint: median tumor weight change, dose: 100.0 mg/kg/injection, schedule: Q02DX006 (ip), vehicle: saline, higher = larger tumour): 103 % of control
- T/C (endpoint: median tumor weight change, dose: 200.0 mg/kg/injection, schedule: Q02DX006 (ip), vehicle: saline, higher = larger tumour): 105 % of control
- T/C (endpoint: median tumor weight change, dose: 400.0 mg/kg/injection, schedule: Q02DX006 (ip), vehicle: saline, higher = larger tumour): 99 % of control
- T/C (endpoint: median tumor weight change, dose: 800.0 mg/kg/injection, schedule: Q02DX006 (ip), vehicle: saline, higher = larger tumour): 101 % of control

— PubChem BioAssay AID288 (DTP/NCI, 2004)
